Measurements published in PubChem BioAssay (NCI).
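Assay format: 96-well plates, 48-hour exposure. GI50 marks 50% less growth. TGI: concentration producing complete growth inhibition.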

How the values were obtained:
Assay in all cases: NCI anticancer screen, dose series, 48 h
786-0 renal = tested on: 786-0 renal
A498 renal = tested on: A498 renal
A549 NSCLC = tested on: A549 NSCLC
ACHN renal = tested on: ACHN renal
BT-549 breast = tested on: BT-549 breast
CAKI-1 renal = tested on: CAKI-1 renal
CCRF-CEM leukemia = tested on: CCRF-CEM leukemia
COLO 205 colon = tested on: COLO 205 colon
DU-145 prostate = tested on: DU-145 prostate
EKVX NSCLC = tested on: EKVX NSCLC
HCC-2998 colon = tested on: HCC-2998 colon
HCT-116 colon = tested on: HCT-116 colon
HCT-15 colon = tested on: HCT-15 colon
HL-60(TB) leukemia = tested on: HL-60(TB) leukemia
HOP-62 NSCLC = tested on: HOP-62 NSCLC
HOP-92 NSCLC = tested on: HOP-92 NSCLC
HS 578T breast = tested on: HS 578T breast
HT29 colon = tested on: HT29 colon
IGROV1 ovarian = tested on: IGROV1 ovarian
K-562 leukemia = tested on: K-562 leukemia
KM12 colon = tested on: KM12 colon
M14 melanoma = tested on: M14 melanoma
MALME-3M melanoma = tested on: MALME-3M melanoma
MCF7 breast = tested on: MCF7 breast
MDA-MB-231 breast = tested on: MDA-MB-231 breast
MDA-MB-435 = tested on: MDA-MB-435
MOLT-4 leukemia = tested on: MOLT-4 leukemia
NCI-H226 lung = tested on: NCI-H226 lung
NCI-H23 lung = tested on: NCI-H23 lung
NCI-H460 lung = tested on: NCI-H460 lung
NCI-H522 lung = tested on: NCI-H522 lung
NCI/ADR-RES ovarian = tested on: NCI/ADR-RES ovarian
OVCAR-3 ovarian = tested on: OVCAR-3 ovarian
OVCAR-5 ovarian = tested on: OVCAR-5 ovarian
OVCAR-8 ovarian = tested on: OVCAR-8 ovarian
PC-3 prostate = tested on: PC-3 prostate
RXF 393 renal = tested on: RXF 393 renal
SF-268 CNS = tested on: SF-268 CNS
SF-295 CNS = tested on: SF-295 CNS
SF-539 CNS = tested on: SF-539 CNS
SK-MEL-2 melanoma = tested on: SK-MEL-2 melanoma
SK-MEL-28 melanoma = tested on: SK-MEL-28 melanoma
SK-MEL-5 melanoma = tested on: SK-MEL-5 melanoma
SK-OV-3 ovarian = tested on: SK-OV-3 ovarian
SN12C renal = tested on: SN12C renal
SNB-19 CNS = tested on: SNB-19 CNS
SNB-75 CNS = tested on: SNB-75 CNS
SW-620 colon = tested on: SW-620 colon
T-47D breast = tested on: T-47D breast
TK-10 renal = tested on: TK-10 renal
U251 CNS = tested on: U251 CNS
UACC-257 melanoma = tested on: UACC-257 melanoma
UACC-62 melanoma = tested on: UACC-62 melanoma
UO-31 renal = tested on: UO-31 renal

How did the GI50 (786-0 renal) turn out when `COC(=O)c1ccc(NC2=C/C(=N/S(=O)(=O)c3ccc(C(=O)O)cc3)c3ccccc3C2=O)cc1` was run?
Its GI50 is 10.9 µM.

And the TGI (786-0 renal)?
The TGI was 58.4 µM.

What about the GI50 (A498 renal) of the same molecule?
Its GI50 is 22.9 µM.

What about the TGI (A498 renal) of the same molecule?
Its TGI is 42.4 µM.

What about the GI50 (A549 NSCLC) of the same molecule?
The GI50 was 29.8 µM.

And the TGI (A549 NSCLC)?
Its TGI is > 100 µM.

What about the GI50 (ACHN renal) of the same molecule?
Its GI50 is 1880 nM.

What about the TGI (ACHN renal) of the same molecule?
Its TGI is 4.19 µM.

And the GI50 (BT-549 breast)?
The GI50 was 15 µM.

And the TGI (BT-549 breast)?
Its TGI is 32.6 µM.

And the GI50 (CAKI-1 renal)?
The GI50 was 10 µM.

What about the TGI (CAKI-1 renal) of the same molecule?
Its TGI is 23.1 µM.

What about the GI50 (CCRF-CEM leukemia) of the same molecule?
Its GI50 is 3.21 µM.

And the TGI (CCRF-CEM leukemia)?
Its TGI is > 100 µM.

What about the GI50 (COLO 205 colon) of the same molecule?
Its GI50 is 17.7 µM.

What about the TGI (COLO 205 colon) of the same molecule?
Its TGI is 38.1 µM.

What about the GI50 (DU-145 prostate) of the same molecule?
The GI50 was 11.7 µM.

What about the TGI (DU-145 prostate) of the same molecule?
The TGI was 24.7 µM.

And the GI50 (EKVX NSCLC)?
The GI50 was 2100 nM.

And the TGI (EKVX NSCLC)?
Its TGI is 5.83 µM.

What about the GI50 (HCC-2998 colon) of the same molecule?
The GI50 was 10.4 µM.

What about the TGI (HCC-2998 colon) of the same molecule?
The TGI was 27 µM.

And the GI50 (HCT-116 colon)?
The GI50 was 2810 nM.

What about the TGI (HCT-116 colon) of the same molecule?
The TGI was 10.2 µM.

And the GI50 (HCT-15 colon)?
Its GI50 is 11 µM.

What about the TGI (HCT-15 colon) of the same molecule?
The TGI was 35.5 µM.

And the GI50 (HL-60(TB) leukemia)?
Its GI50 is 2550 nM.

What about the TGI (HL-60(TB) leukemia) of the same molecule?
The TGI was 6.52 µM.

And the GI50 (HOP-62 NSCLC)?
The GI50 was 17.3 µM.

And the TGI (HOP-62 NSCLC)?
The TGI was 38.3 µM.

And the GI50 (HOP-92 NSCLC)?
The GI50 was 3.71 µM.

What about the TGI (HOP-92 NSCLC) of the same molecule?
Its TGI is 15.6 µM.

And the GI50 (HS 578T breast)?
The GI50 was 3.36 µM.

And the TGI (HS 578T breast)?
Its TGI is 48 µM.

And the GI50 (HT29 colon)?
The GI50 was 21.3 µM.

And the TGI (HT29 colon)?
Its TGI is 47.4 µM.

And the GI50 (IGROV1 ovarian)?
The GI50 was 4.92 µM.

And the TGI (IGROV1 ovarian)?
Its TGI is 20.8 µM.

What about the GI50 (K-562 leukemia) of the same molecule?
The GI50 was 3.19 µM.

What about the TGI (K-562 leukemia) of the same molecule?
The TGI was > 100 µM.

And the GI50 (KM12 colon)?
The GI50 was 10.7 µM.

What about the TGI (KM12 colon) of the same molecule?
The TGI was 25.3 µM.

What about the GI50 (M14 melanoma) of the same molecule?
Its GI50 is 5.7 µM.

What about the TGI (M14 melanoma) of the same molecule?
The TGI was 23.9 µM.

What about the GI50 (MALME-3M melanoma) of the same molecule?
Its GI50 is 1890 nM.

And the TGI (MALME-3M melanoma)?
Its TGI is 3.52 µM.

What about the GI50 (MCF7 breast) of the same molecule?
Its GI50 is 1890 nM.

And the TGI (MCF7 breast)?
Its TGI is 4.4 µM.

What about the GI50 (MDA-MB-231 breast) of the same molecule?
Its GI50 is 2510 nM.

What about the TGI (MDA-MB-231 breast) of the same molecule?
The TGI was 8.1 µM.

What about the GI50 (MDA-MB-435) of the same molecule?
The GI50 was 1950 nM.

And the TGI (MDA-MB-435)?
The TGI was 3.67 µM.

What about the GI50 (MOLT-4 leukemia) of the same molecule?
Its GI50 is 1740 nM.

And the TGI (MOLT-4 leukemia)?
Its TGI is 4.47 µM.

And the GI50 (NCI-H226 lung)?
The GI50 was 15.2 µM.

And the TGI (NCI-H226 lung)?
The TGI was 34.6 µM.

What about the GI50 (NCI-H23 lung) of the same molecule?
The GI50 was 3.18 µM.

And the TGI (NCI-H23 lung)?
Its TGI is 18.2 µM.

What about the GI50 (NCI-H460 lung) of the same molecule?
Its GI50 is 20.6 µM.

And the TGI (NCI-H460 lung)?
Its TGI is 50.8 µM.

And the GI50 (NCI-H522 lung)?
Its GI50 is 1920 nM.

What about the TGI (NCI-H522 lung) of the same molecule?
Its TGI is 4.76 µM.

And the GI50 (NCI/ADR-RES ovarian)?
Its GI50 is 3.06 µM.

What about the TGI (NCI/ADR-RES ovarian) of the same molecule?
Its TGI is 11.8 µM.

And the GI50 (OVCAR-3 ovarian)?
Its GI50 is 2170 nM.

And the TGI (OVCAR-3 ovarian)?
The TGI was 5.94 µM.

And the GI50 (OVCAR-5 ovarian)?
The GI50 was 14 µM.

And the TGI (OVCAR-5 ovarian)?
Its TGI is 33.4 µM.

And the GI50 (OVCAR-8 ovarian)?
The GI50 was 3.2 µM.

What about the TGI (OVCAR-8 ovarian) of the same molecule?
The TGI was 46.2 µM.

What about the GI50 (PC-3 prostate) of the same molecule?
The GI50 was 3.4 µM.

And the TGI (PC-3 prostate)?
Its TGI is 25.3 µM.

And the GI50 (RXF 393 renal)?
Its GI50 is 8.1 µM.

What about the TGI (RXF 393 renal) of the same molecule?
Its TGI is 22.4 µM.

And the GI50 (SF-268 CNS)?
Its GI50 is 6.33 µM.

What about the TGI (SF-268 CNS) of the same molecule?
The TGI was 37.5 µM.

What about the GI50 (SF-295 CNS) of the same molecule?
Its GI50 is 11.7 µM.

And the TGI (SF-295 CNS)?
Its TGI is 26.9 µM.

And the GI50 (SF-539 CNS)?
Its GI50 is 1790 nM.

What about the TGI (SF-539 CNS) of the same molecule?
The TGI was 3.38 µM.

And the GI50 (SK-MEL-2 melanoma)?
Its GI50 is 2350 nM.

And the TGI (SK-MEL-2 melanoma)?
The TGI was 6.51 µM.

What about the GI50 (SK-MEL-28 melanoma) of the same molecule?
The GI50 was 2460 nM.

And the TGI (SK-MEL-28 melanoma)?
Its TGI is 5.89 µM.

And the GI50 (SK-MEL-5 melanoma)?
The GI50 was 3.18 µM.

What about the TGI (SK-MEL-5 melanoma) of the same molecule?
Its TGI is 10.1 µM.

And the GI50 (SK-OV-3 ovarian)?
The GI50 was 21 µM.

And the TGI (SK-OV-3 ovarian)?
The TGI was 44.5 µM.

What about the GI50 (SN12C renal) of the same molecule?
The GI50 was 2130 nM.

And the TGI (SN12C renal)?
Its TGI is 5.15 µM.

And the GI50 (SNB-19 CNS)?
Its GI50 is 16.9 µM.

What about the TGI (SNB-19 CNS) of the same molecule?
Its TGI is 33.2 µM.

What about the GI50 (SNB-75 CNS) of the same molecule?
Its GI50 is 2100 nM.

What about the TGI (SNB-75 CNS) of the same molecule?
Its TGI is 10.1 µM.

And the GI50 (SW-620 colon)?
Its GI50 is 2780 nM.

What about the TGI (SW-620 colon) of the same molecule?
Its TGI is > 100 µM.

And the GI50 (T-47D breast)?
Its GI50 is 3.19 µM.

What about the TGI (T-47D breast) of the same molecule?
The TGI was 26.8 µM.

What about the GI50 (TK-10 renal) of the same molecule?
Its GI50 is 25.2 µM.

And the TGI (TK-10 renal)?
The TGI was 42.8 µM.

And the GI50 (U251 CNS)?
Its GI50 is 4.01 µM.

What about the TGI (U251 CNS) of the same molecule?
The TGI was 28.8 µM.

And the GI50 (UACC-257 melanoma)?
Its GI50 is 2060 nM.

And the TGI (UACC-257 melanoma)?
Its TGI is 4.6 µM.

What about the GI50 (UACC-62 melanoma) of the same molecule?
Its GI50 is 2080 nM.

And the TGI (UACC-62 melanoma)?
The TGI was 4.55 µM.

What about the GI50 (UO-31 renal) of the same molecule?
Its GI50 is 2940 nM.

And the TGI (UO-31 renal)?
Its TGI is 15.3 µM.
